# In patent US20250026766A1, “Thiazolopyridyl Amide Derivatives as DNA Polymerase Theta Inhibitors” (BeiGene, Ltd., priority 2022, published 2025):
# pIC50: −log10 of the molar value.
# Biological target: Pol Theta (1-894) (Homo sapiens (Human), UniProt O75417)
# Assay: Biochemical Pol Theta (1-894) ATPase IC50 assay (ADP-Glo, ssDNA substrate)
# Conditions: ADP-Glo assay with ssDNA substrate, room temperature
# Method in brief: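 His-tagged human Pol Theta 1-894 from Sf9 baculovirus cells, 2× enzyme solution at 12.5 nM, assayed with ssDNA substrate at room temperature in 40 mM Tris pH 7.5, 20 mM MgCl2, 1 mM DTT, 0.01% BSA, 0.05% Tween-20.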
# Pol Theta (1-894), sequence (O75417 1-894): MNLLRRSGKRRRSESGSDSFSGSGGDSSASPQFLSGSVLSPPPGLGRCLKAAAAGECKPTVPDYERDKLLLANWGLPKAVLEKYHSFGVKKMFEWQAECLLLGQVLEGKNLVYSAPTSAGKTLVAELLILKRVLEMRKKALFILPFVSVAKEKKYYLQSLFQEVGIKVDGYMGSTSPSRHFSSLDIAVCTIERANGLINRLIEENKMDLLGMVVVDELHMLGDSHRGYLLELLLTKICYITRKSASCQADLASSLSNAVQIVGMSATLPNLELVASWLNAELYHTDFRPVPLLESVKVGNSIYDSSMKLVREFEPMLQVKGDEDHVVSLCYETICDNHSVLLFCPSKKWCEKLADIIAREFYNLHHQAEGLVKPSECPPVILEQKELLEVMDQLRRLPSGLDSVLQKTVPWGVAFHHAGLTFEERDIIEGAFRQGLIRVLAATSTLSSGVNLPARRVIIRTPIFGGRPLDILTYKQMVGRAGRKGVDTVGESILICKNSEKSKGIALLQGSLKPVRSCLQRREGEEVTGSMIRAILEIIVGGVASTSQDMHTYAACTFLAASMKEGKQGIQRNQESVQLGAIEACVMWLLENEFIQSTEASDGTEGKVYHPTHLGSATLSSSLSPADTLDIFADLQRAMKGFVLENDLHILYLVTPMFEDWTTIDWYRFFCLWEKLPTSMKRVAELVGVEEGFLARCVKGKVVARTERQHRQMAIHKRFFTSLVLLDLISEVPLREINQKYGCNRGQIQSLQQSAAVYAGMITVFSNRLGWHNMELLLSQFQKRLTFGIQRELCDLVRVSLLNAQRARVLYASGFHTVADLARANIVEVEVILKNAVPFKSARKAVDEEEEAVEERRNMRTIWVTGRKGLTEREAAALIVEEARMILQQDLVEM
row,pIC50,SMILES
1,7.15,"Cc1cc(-c2cc(S(C)(=O)=O)ccc2C2CC2)c(C(=O)Nc2nc3ccc(-c4ccc(C#N)cc4)nc3s2)cn1 [Example 157, N-(5-(4-cyanophenyl)thiazolo[5,4-b]pyridin-2-yl)-4-(2-cyclopropyl-5-(methylsulfonyl)phenyl)-6-methylnicotinamide]"
2,6.69,"Cn1nccc1-c1ccc2nc(NC(=O)c3ccc(C#N)nc3N3CCOCC3)sc2n1 [Example 15, 6-cyano-N-(5-(1-methyl-1H-pyrazol-5-yl)thiazolo[5,4-b]pyridin-2-yl)-2-morpholinonicotinamide]"
3,7.70,"COc1ccccc1-c1cnncc1C(=O)Nc1nc2ccc(-c3ccc(Cl)cc3)nc2s1 [Example 9, N-(5-(4-chlorophenyl)thiazolo[5,4-b]pyridin-2-yl)-5-(2-methoxyphenyl)pyridazine-4-carboxamide]"
4,6.72,"COc1ccccc1-c1ccncc1C(=O)Nc1nc2ccc(-c3ccc(Cl)cc3)nc2s1 [Example 2, N-(5-(4-chlorophenyl)thiazolo[5,4-b]pyridin-2-yl)-4-(2-methoxyphenyl)nicotinamide]"
5,7.60,"COc1ccccc1-c1cnncc1C(=O)Nc1nc2ccc(-c3ccc(Cl)c4c3cnn4C)nc2s1 [Example 125, N-(5-(7-chloro-1-methyl-1H-indazol-4-yl)thiazolo[5,4-b]pyridin-2-yl)-5-(2-methoxyphenyl)pyridazine-4-carboxamide]"
6,6.83,"COc1cccc(F)c1-c1nc(C#N)ccc1C(=O)Nc1nc2ccc(-c3ccc(Cl)cc3)nc2s1 [Example 10, N-(5-(4-chlorophenyl)thiazolo[5,4-b]pyridin-2-yl)-6-cyano-2-(2-fluoro-6-methoxyphenyl)nicotinamide]"
7,7.14,"COc1ccc(C#N)cc1-c1cc(C)ncc1C(=O)Nc1nc2ccc(-c3ccc(C(=O)NC(C)C)cc3)nc2s1 [Example 74, 4-(5-cyano-2-methoxyphenyl)-N-(5-(4-(isopropylcarbamoyl)phenyl)thiazolo[5,4-b]pyridin-2-yl)-6-methylnicotinamide]"
8,8.12,"COc1ccc(C#N)cc1-c1cc(C)ncc1C(=O)Nc1nc2ccc(-c3ccc(N4CCCC4=O)c(C)c3)nc2s1 [Example 78, 4-(5-cyano-2-methoxyphenyl)-6-methyl-N-(5-(3-methyl-4-(2-oxopyrrolidin-1-yl)phenyl)thiazolo[5,4-b]pyridin-2-yl)nicotinamide]"
9,8.15,"COc1ccc(C#N)cc1-c1cc(C)ncc1C(=O)Nc1nc2ccc(-c3ccc(CNC(C)=O)cc3)nc2s1 [Example 115, N-(5-(4-(acetamidomethyl)phenyl)thiazolo[5,4-b]pyridin-2-yl)-4-(5-cyano-2-methoxyphenyl)-6-methylnicotinamide]"
10,7.66,"COc1ccc(C#N)cc1-c1cnncc1C(=O)Nc1nc2ccc(-c3ccc(NC(C)=O)cc3)nc2s1 [Example 23, N-(5-(4-acetamidophenyl)thiazolo[5,4-b]pyridin-2-yl)-5-(5-cyano-2-methoxyphenyl)pyridazine-4-carboxamide]"
11,7.44,"COc1cc(-c2ccc3nc(NC(=O)c4cnc(C)cc4-c4cc(C#N)ccc4OC)sc3n2)ccc1C#N [Example 161, 4-(5-cyano-2-methoxyphenyl)-N-(5-(4-cyano-3-methoxyphenyl)thiazolo[5,4-b]pyridin-2-yl)-6-methylnicotinamide]"
12,7.62,"COc1ccccc1-c1cnncc1C(=O)Nc1nc2ccc(CCc3ccc(Cl)cc3)nc2s1 [Example 62, N-(5-(4-chlorophenethyl)thiazolo[5,4-b]pyridin-2-yl)-5-(2-methoxyphenyl)pyridazine-4-carboxamide]"
13,8.51,"COc1ccccc1-c1cnncc1C(=O)Nc1nc2ccc(-c3cc(C)c(NC(C)=O)cc3C)nc2s1 [Example 141, N-(5-(4-acetamido-2,5-dimethylphenyl)thiazolo[5,4-b]pyridin-2-yl)-5-(2-methoxyphenyl)pyridazine-4-carboxamide]"
14,7.17,"COc1ccccc1-c1cc(C#N)ncc1C(=O)Nc1nc2ccc(-c3ccc(NC(C)=O)cc3)nc2s1 [Example 27, N-(5-(4-acetamidophenyl)thiazolo[5,4-b]pyridin-2-yl)-6-cyano-4-(2-methoxyphenyl)nicotinamide]"
